Experimental data reported in ChEMBL document CHEMBL1201862, “PubChem BioAssay data set” (2004).
The source made the active and inactive calls.

What was measured:
[1] = biological target: FAD-linked sulfhydryl oxidase ALR (Homo sapiens, UniProt P55789); assay: ALR-catalysed DTT oxidation blockers – biochemical, H2O2 detection, luminescence, cherry-pick, dose response (AID 493248)
[2] = biological target: Genome polyprotein (dengue virus type 2, UniProt P29990); assay: flavivirus cap methylation enzyme inhibition – biochemical, confirmation dose response, primary screen (AID 588689); assay type: functional
Genome polyprotein, sequence (P29990 2492-3391 limits assumed): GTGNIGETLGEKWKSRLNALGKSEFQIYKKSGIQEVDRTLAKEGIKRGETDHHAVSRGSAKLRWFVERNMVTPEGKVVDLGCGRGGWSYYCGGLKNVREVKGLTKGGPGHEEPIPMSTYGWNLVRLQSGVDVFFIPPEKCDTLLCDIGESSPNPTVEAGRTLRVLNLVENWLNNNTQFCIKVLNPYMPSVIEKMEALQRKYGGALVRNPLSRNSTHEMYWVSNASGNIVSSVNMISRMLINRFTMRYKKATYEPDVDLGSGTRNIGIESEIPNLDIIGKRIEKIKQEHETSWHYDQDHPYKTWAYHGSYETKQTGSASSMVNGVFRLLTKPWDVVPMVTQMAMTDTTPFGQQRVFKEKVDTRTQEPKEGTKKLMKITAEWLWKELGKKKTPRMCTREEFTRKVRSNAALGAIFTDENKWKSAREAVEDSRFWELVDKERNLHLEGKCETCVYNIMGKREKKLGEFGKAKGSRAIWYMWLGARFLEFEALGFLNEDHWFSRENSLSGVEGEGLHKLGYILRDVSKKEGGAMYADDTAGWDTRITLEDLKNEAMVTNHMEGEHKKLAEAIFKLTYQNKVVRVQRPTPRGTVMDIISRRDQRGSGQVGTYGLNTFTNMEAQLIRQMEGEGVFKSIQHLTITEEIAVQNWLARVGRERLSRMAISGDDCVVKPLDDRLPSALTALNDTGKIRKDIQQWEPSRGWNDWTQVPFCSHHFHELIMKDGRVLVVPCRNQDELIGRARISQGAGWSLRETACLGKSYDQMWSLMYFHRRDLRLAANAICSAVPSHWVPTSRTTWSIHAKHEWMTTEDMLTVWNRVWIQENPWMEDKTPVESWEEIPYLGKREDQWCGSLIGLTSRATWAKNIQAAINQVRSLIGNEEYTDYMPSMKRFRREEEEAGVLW

[3] = biological target: Glucose-6-phosphate 1-dehydrogenase (Homo sapiens, UniProt P11413); assay: inhibition of Homo sapiens G6PD, dose series – biochemical, fluorescence, selectivity assay for P. falciparum G6PD inhibitor project, dose response (AID 504792); assay type: functional
Glucose-6-phosphate 1-dehydrogenase, sequence (P11413 whole entry): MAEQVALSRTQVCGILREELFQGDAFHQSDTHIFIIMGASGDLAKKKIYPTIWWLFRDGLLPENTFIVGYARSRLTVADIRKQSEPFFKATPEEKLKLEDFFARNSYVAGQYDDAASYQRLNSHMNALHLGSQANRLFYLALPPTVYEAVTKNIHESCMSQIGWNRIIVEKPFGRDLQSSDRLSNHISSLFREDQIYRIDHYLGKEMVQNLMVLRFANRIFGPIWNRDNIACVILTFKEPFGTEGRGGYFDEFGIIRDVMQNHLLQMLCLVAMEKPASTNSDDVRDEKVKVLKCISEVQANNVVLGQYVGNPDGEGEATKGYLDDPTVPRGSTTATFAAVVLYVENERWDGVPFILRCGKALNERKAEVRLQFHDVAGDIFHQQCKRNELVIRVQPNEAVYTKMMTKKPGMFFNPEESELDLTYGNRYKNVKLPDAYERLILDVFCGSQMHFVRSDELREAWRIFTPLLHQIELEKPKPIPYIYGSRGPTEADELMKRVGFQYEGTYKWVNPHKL

[4] = tested on: HeLa; assay: ATP-based viability loss in HeLa cells – cell-based, CellTiter-Glo luminescence, cherry-pick samples, cytotoxicity control for MITF activator project, dose response (AID 540259); assay type: functional; settings: Homo sapiens
[5] = biological target: T1, High affinity choline transporter 1 (Homo sapiens, UniProt Q9GZV3); assay: human choline transporter blockers, potency – cell-based, 5-point CRC, membrane potential dye, dose response (AID 504840); assay type: functional
T1 sequence (Q9GZV3 whole entry): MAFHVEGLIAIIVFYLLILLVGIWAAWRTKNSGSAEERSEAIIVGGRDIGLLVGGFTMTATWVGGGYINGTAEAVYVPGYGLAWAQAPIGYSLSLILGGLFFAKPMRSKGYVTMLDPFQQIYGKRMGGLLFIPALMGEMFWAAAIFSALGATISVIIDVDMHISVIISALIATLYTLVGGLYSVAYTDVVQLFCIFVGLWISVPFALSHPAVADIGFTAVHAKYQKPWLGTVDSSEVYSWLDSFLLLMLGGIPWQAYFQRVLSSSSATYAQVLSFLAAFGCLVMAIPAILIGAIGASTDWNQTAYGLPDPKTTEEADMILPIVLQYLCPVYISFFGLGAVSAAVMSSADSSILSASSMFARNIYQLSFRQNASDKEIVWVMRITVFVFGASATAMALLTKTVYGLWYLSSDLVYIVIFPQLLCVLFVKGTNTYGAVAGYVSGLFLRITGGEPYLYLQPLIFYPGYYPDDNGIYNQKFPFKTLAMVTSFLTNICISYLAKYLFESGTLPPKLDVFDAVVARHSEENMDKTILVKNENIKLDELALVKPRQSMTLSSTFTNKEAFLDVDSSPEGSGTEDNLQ

[6] = biological target: Large T antigen (Simian virus 40, UniProt P03070); assay type: functional, Betapolyomavirus macacae;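 note: Confirmatory-stage PubChem screen for compounds that inhibit SV40 T antigen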
Large T antigen, sequence (P03070 whole entry): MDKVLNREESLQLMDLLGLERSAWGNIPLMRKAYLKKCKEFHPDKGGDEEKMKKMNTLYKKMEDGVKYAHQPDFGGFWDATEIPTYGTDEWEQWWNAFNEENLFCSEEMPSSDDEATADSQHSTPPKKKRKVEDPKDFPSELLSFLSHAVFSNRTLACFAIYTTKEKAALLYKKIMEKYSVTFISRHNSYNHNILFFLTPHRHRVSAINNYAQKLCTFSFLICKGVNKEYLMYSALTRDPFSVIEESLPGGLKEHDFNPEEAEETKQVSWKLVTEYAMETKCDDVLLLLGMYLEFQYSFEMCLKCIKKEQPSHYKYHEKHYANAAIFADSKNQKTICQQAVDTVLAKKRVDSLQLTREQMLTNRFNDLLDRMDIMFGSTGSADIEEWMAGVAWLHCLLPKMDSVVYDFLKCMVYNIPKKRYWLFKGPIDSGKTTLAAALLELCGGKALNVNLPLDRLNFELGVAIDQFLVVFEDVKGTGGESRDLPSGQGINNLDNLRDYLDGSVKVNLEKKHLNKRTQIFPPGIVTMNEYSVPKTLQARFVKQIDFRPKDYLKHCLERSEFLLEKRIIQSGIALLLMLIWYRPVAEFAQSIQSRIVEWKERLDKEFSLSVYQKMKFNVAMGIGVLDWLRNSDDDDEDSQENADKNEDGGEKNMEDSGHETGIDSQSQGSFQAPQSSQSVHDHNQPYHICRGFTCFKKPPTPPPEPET

[7] = biological target: T2, Short transient receptor potential channel 4 (Mus musculus, UniProt Q9QUQ5); assay: block of DAMGO-driven TRPC4 calcium entry – cell-based, HEK293 TRPC4/mu-opioid, Fluo-4 calcium, dose response (AID 434942); assay type: functional;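 note: potency of inhibitors blocking the TRPC4 calcium response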
T2 sequence (Q9QUQ5 whole entry): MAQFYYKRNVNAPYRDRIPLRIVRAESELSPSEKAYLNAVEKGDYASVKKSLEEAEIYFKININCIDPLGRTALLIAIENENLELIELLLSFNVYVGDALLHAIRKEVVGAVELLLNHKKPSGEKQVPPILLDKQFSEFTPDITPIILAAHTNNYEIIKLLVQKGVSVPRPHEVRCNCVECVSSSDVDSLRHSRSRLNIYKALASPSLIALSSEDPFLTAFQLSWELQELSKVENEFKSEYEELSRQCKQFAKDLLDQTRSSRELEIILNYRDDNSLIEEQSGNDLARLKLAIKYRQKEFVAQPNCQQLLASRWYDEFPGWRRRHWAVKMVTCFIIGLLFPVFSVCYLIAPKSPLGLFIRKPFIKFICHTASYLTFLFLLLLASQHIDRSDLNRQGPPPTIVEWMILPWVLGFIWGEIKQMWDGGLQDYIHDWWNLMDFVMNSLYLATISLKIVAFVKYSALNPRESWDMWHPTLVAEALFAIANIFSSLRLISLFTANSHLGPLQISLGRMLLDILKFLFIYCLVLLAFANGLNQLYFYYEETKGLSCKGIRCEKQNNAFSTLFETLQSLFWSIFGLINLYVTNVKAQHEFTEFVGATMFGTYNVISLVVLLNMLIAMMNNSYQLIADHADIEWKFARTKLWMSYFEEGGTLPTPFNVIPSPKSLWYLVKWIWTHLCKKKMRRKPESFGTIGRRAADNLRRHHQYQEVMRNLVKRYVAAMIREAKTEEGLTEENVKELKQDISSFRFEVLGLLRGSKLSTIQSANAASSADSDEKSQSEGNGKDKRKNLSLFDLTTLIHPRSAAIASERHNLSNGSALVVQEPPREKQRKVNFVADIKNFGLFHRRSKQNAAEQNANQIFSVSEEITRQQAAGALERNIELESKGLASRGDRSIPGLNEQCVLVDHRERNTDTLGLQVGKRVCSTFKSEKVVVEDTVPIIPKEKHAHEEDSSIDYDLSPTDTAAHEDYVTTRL

[8] = HIV-1 Vif–A3G interaction blockers – biochemical, TR-FRET, GST-Vif 1-94, biotin-A3G peptide, dose response retest, primary screen (AID 1117319); assay type: functional;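 note: TR-FRET signal of purified GST-Vif binding a biotinylated A3G peptide; inhibitors lower the FRET signal by blocking Vif and A3G binding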
[9] = biological target: T3, Rac GTPase-activating protein 1 (Homo sapiens, UniProt Q9H0H5); assay: blockers of MgcRacGAP-driven Rac1 GTP hydrolysis – biochemical, ADP Hunter fluorescence, primary and confirmatory, confirmation (AID 624330); assay type: functional
T3 sequence (Q9H0H5 whole entry): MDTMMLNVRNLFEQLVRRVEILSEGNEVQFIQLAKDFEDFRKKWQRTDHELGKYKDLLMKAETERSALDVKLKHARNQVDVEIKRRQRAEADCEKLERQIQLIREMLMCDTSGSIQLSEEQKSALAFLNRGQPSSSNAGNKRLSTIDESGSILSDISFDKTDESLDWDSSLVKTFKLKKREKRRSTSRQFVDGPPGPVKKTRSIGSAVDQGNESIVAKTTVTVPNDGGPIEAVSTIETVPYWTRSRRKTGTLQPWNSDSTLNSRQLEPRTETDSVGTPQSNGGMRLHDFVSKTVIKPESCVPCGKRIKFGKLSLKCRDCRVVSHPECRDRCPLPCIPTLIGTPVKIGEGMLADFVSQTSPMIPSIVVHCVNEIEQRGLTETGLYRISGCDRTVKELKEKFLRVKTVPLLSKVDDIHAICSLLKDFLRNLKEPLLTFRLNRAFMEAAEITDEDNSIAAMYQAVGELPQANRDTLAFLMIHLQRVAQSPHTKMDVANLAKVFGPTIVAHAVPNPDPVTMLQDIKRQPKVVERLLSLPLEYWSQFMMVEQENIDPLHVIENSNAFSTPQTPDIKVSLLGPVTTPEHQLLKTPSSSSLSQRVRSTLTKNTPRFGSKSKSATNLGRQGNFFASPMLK

[10] = biological target: 72 kDa type IV collagenase (Homo sapiens, UniProt P08253); assay: Dose Response validation of uHTS RPN11 inhibitor hits using a MMP-2 Fluorescence assay.; assay type: functional
72 kDa type IV collagenase, sequence (P08253 whole entry): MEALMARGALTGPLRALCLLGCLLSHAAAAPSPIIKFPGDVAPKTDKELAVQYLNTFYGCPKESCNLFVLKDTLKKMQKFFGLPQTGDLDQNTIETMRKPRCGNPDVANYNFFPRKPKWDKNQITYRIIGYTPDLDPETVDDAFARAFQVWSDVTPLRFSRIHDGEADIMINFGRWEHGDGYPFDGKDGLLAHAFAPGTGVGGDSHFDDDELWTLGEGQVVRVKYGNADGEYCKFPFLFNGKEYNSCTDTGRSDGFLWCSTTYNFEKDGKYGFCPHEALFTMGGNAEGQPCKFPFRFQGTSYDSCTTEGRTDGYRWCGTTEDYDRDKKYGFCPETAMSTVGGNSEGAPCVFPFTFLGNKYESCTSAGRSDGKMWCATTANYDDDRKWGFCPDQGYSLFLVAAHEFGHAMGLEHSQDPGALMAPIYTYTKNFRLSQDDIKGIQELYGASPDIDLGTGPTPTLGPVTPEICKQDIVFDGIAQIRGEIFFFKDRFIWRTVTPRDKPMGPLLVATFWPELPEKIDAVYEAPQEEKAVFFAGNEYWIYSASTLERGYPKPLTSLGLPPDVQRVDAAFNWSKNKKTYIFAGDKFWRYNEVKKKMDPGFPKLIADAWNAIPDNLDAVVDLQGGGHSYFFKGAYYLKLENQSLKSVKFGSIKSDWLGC

[11] = biological target: 26S proteasome non-ATPase regulatory subunit 14 (Homo sapiens, UniProt O00487); assay: inhibition of proteasome subunit RPN11 – biochemical, fluorescence polarization, uHTS hits, confirmation (AID 602368); assay type: functional
26S proteasome non-ATPase regulatory subunit 14, sequence (O00487 whole entry): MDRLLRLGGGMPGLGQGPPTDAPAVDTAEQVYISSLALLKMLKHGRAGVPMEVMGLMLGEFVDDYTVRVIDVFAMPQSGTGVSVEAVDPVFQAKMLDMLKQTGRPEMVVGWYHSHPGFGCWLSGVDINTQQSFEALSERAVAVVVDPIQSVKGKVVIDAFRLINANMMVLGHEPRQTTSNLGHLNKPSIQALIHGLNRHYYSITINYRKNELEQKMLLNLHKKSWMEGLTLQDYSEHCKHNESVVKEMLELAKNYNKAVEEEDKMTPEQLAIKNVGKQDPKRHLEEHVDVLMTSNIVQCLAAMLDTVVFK

[12] = biological target: Prothrombin (Bos taurus, UniProt P00735); assay: thrombin protease inhibitors – biochemical, fluorescence polarization, uHTS hits, dose response (AID 602369); assay type: functional
[13] = biological target: T4, DNA repair protein RAD52 homolog (Homo sapiens, UniProt P43351); assay type: functional, biochemical
T4 sequence (P43351 whole entry): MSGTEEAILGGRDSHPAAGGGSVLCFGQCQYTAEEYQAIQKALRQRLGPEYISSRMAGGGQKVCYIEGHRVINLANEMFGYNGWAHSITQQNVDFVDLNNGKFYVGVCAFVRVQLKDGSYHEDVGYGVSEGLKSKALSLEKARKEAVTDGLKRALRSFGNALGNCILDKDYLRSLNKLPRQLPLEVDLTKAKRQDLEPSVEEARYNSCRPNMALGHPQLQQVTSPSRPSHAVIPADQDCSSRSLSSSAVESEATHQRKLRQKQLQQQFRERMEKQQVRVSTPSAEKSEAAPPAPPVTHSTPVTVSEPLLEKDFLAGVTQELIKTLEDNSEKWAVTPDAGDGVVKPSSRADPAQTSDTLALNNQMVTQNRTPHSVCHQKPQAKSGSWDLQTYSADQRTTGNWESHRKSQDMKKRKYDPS

[14] = tested on: H4; assay: Luminescence Cell-Based Dose Response HTS to Identify Activators of 5'UTR Stem-Loop Driven Prion Protein mRNA Translation in H4 Neuroglioblastoma Cells. [Related pubchem assays: 1829 (Project Summary), 1814 (Primary HTS)]; assay type: functional; settings: Homo sapiens
[15] = Luminescence Cell-Based Dose Confirmation HTS to Identify Activators of 5'UTR Stem-Loop Driven Alpha-Synuclein mRNA Translation in H4 Neuroglioblastoma Cells. [Related pubchem assays: 1829 (Project Summary), 1814 (Primary HTS)]; assay type: functional
[16] = Luminescence Cell-Based Dose Response HTS to Identify Activators of Luciferase Translation or Activity in H4 […] Cells. [Related pubchem assays: 1829 (Project Summary), 1814 (Primary HTS)]; assay type: functional
[17] = tested on: Vero; assay: cells; assay type: functional; settings: Chlorocebus sabaeus
[18] = biological target: Cytochrome P450 2D6 (Homo sapiens, UniProt P10635);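 note: CYP2D6 member of a cytochrome P450 panel assay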
Cytochrome P450 2D6, sequence (P10635 whole entry): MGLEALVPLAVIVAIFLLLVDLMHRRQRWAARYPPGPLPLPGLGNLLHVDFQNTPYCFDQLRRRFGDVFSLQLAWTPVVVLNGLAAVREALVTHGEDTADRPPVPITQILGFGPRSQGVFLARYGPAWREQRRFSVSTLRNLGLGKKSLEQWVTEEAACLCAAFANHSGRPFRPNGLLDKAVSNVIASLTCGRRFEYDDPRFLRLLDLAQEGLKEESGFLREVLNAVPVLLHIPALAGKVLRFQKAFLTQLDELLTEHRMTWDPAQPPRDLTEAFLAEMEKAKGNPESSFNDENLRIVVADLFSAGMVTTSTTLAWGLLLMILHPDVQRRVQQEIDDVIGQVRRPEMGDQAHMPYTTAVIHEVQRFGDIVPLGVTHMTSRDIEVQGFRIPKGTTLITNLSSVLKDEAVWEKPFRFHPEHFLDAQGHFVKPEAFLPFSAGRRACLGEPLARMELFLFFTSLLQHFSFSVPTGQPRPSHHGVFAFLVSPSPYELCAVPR

[19] = viability of PTEN-deleted HCT116 cells – cell-based, HCT116 PTEN knockout, dose response (AID 1047); assay type: functional;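 note: HCT116 colon tumor cells with PTEN knocked out; cells exposed to compound for 60 hours before readout; potency for loss of cell viability measured by luminescence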
[20] = microbe, parasite or virus in culture; assay type: functional; settings: Mycobacterium tuberculosis
[21] = viability of HCT116 lacking mutant beta-catenin – cell-based, human colon tumor, dose response (AID 1045); assay type: functional;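 note: HCT116 colon tumor cells with beta catenin knocked out; cells exposed to compound for 60 hours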

FAD-linked sulfhydryl oxidase ALR, sequence (P55789 whole entry): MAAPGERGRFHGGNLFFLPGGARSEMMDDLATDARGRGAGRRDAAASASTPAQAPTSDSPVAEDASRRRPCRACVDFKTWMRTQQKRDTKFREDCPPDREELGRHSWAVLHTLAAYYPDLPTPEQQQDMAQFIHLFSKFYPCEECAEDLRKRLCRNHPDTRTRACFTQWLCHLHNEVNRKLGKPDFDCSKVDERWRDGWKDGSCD

Oc1ccc(Br)cc1CN1CCCCCCC1
AC50 [1]: 7.63 µM (active)

Cc1cc(O)c(C(C)C)cc1N=Cc1ccc([N+](=O)[O-])cc1
IC50 [2]: 90.1 µM (active)
IC50 [3]: 44.4 µM (inactive)

COc1cc(C=O)ccc1OCc1cccc(Br)c1
AC50 [4]: 85.9 µM (active)

Cc1cccnc1NC(=O)Nc1cccc(Cl)c1
AC50 [4]: > 350 µM (inactive)

Cc1ccc(CSc2nnc(CCNC(=O)OC(C)(C)C)o2)cc1
IC50 [5]: 12.9 µM (active)

CC(=O)N1CCN(c2ccc(NCc3cccc4ccccc34)cc2)CC1
IC50 [6]: 10.1 µM (active)
AC50 [1]: 1.36 µM (active)

Cc1cccc(NC(=O)CSc2nnc(-c3cc(C)n(-c4ccccc4)c3C)o2)c1C
EC50 [7]: 2.11 µM (active)

c1coc(CNc2nc(-c3cccs3)cs2)c1
IC50 [8]: > 100 µM (active)

Cn1c(=O)[nH]c(=O)c2c1nc(S)n2CCCc1ccccc1
IC50 [3]: > 80 µM (inactive)
IC50 [9]: 19.7 µM (active)

CCN1CCN(c2nc(C)nc3c2sc(=S)n3C)CC1
IC50 [3]: > 80 µM (inactive)

CCOC(=O)C1(CC2CC2)CCN(Cc2cc(Cl)c(O)c(OC)c2)CC1
EC50 [7]: 3.76 µM (active)

CCc1ccc(NC(=O)CCc2nc3sc4c(c3c(=O)[nH]2)CCCC4)cc1
IC50 [10]: > 100 µM (inactive)
IC50 [11]: 37.6 µM (active)
IC50 [12]: 35.9 µM (active)

COc1ccc(Cn2cnc3c([N+](=O)[O-])c(C)c(C)cc32)cc1
IC50 [5]: 12.3 µM (active)

N#CCCn1cc(CNCc2ccccc2)c(-c2cccc([N+](=O)[O-])c2)n1
EC50 [7]: 3.76 µM (active)

Cc1c(P(=S)(c2ccccc2)c2ccccc2)[n+]2ccccc2n1C
IC50 [10]: > 100 µM (inactive)
IC50 [11]: 5.42 µM (active)
IC50 [12]: 62.8 µM (active)
AC50 [13]: 10.4 µM (active)

CCOC(=O)N1CCN(C(=O)CCCn2c(=O)[nH]c3ccccc3c2=O)CC1
IC50 [5]: 13.2 µM (active)

CCN(CC)c1ccc([C@H]2[C@@H]3CCCC[C@]3(O)CCN2CC(=O)NCc2ccco2)cc1
AC50 [1]: 1.54 µM (active)

CC1CCC(NC(=O)c2ccc(NS(=O)(=O)c3ccc4[nH]c(O)nc4c3)cc2)CC1 (configuration not stated)
EC50 [14]: 8.97 µM (active)
AC50 [4]: 53.8 µM (active)
EC50 [15]: 23.4 µM (active)
EC50 [16]: 27.8 µM (active)

COc1ccc(-c2cn3cc(C)ccc3n2)cc1Br
IC50 [3]: > 80 µM (inactive)

O=C1c2ccccc2S(=O)(=O)c2cc(N3CCOCC3)ccc21
IC50 [10]: > 100 µM (inactive)
IC50 [11]: 10.9 µM (active)
IC50 [12]: 24 µM (active)

COc1cc(C(F)(F)F)nc2c(Br)c(C(C)(C)C)nn12
EC50 [7]: 1.5 µM (active)

COC(=O)CN1C(=O)C(O)=C(C(C)=O)C1c1ccc([N+](=O)[O-])cc1 (configuration not stated)
IC50 [8]: > 100 µM (active)

O=C(c1ccc(-n2cnnn2)cc1)N1CCOCC1
IC50 [8]: > 100 µM (active)

COc1ccc(C(C(C(=O)c2cccs2)N2CCOCC2)N2CCOCC2)cc1OC (configuration not stated)
IC50 [8]: > 100 µM (active)

O=C(COc1cccc2cccnc12)N/N=C/c1cccn1-c1ccc(F)cc1
CC50 [17]: > 25 µM (active)

Cc1cccc(-c2nnc3sc(-c4ccccc4)nn23)c1
AC50 [4]: 189 µM (active)

CCOc1cc(/C=C2\SC(=S)N(NS(=O)(=O)c3ccc(C)cc3)C2=O)ccc1O
IC50 [10]: 73.8 µM (active)
IC50 [11]: 36.9 µM (active)
IC50 [12]: 30.4 µM (active)

CCOc1cc(CNCCCN2CCOCC2)cc(Br)c1OCC(=O)Nc1cccc(C(F)(F)F)c1
AC50 [18]: 14.1 µM (inconclusive)
EC50 [19]: 9.96 µM (active)
EC50 [7]: 6.68 µM (active)
CC50 [20]: 12.4 µM (active)
EC50 [21]: 7.97 µM (active)

COc1ccc(O)c(-c2cc(-c3ccccc3[N+](=O)[O-])[nH]n2)c1
AC50 [1]: 4.33 µM (active)

CC(=O)Nc1ccc(NC(=O)c2sc3nc4c(c(-c5ccc(C)cc5)c3c2N)CCC4)cc1
IC50 [8]: > 100 µM (active)

O=C(O)c1ccccc1NC(=O)c1cc(-c2ccccc2)nc2ccccc12
AC50 [1]: 0.703 µM (active)

CCN(CC)C(=O)c1cc2sc3ccccc3c2s1
AC50 [4]: 46.9 µM (active)

O=C(CCCSc1nc2ccccc2s1)NC1=NCCS1
IC50 [5]: 12 µM (active)
